The results in this text go back to ChEMBL document CHEMBL5032520, “Low-Valent Calix[4]arene Glycoconjugates Based on Hydroxamic Acid Bearing Linkers as Potent Inhibitors in a Model of Ebola Virus Cis-Infection and HCMV-gB-Recombinant Glycoprotein Interaction with MDDC Cells by Blocking DC-SIGN” (J Med Chem, 2021).

Assay [1] deals with Human betaherpesvirus 5. As to the kind of experiment: Antiviral activity against HCMV infected in U-937 cells expressed in DC-SIGN using flow cytometry. The assay is classed as functional, organism-based. Particulars: Human betaherpesvirus 5, U-937. For orientation: In flow cytometry, cells or beads pass a laser one at a time.
Assay [2] has as its system Human betaherpesvirus 5. As to the kind of experiment: Potency index, ratio of Mannan IC50 to test compound IC50 for antiviral activity against HCMV infected in U-937 cells expressed in DC-SIGN using flow cytometry. The assay is classed as functional.

The compound `C[C@@H]1O[C@@H](OCc2cn(CCCCCC(=O)N(O)Cc3cn(CCCOc4c5cc(C(C)(C)C)cc4Cc4cc(C(C)(C)C)cc(c4OCCCn4cc(CN(O)C(=O)CCCCCn6cc(CO[C@@H]7O[C@@H](C)[C@@H](O)[C@@H](O)[C@@H]7O)nn6)nn4)Cc4cc(C(C)(C)C)cc(c4OCCCn4cc(CN(O)C(=O)CCCCCn6cc(CO[C@@H]7O[C@@H](C)[C@@H](O)[C@@H](O)[C@@H]7O)nn6)nn4)Cc4cc(C(C)(C)C)cc(c4OCCCn4cc(CN(O)C(=O)CCCCCn6cc(CO[C@@H]7O[C@@H](C)[C@@H](O)[C@@H](O)[C@@H]7O)nn6)nn4)C5)nn3)nn2)[C@@H](O)[C@H](O)[C@@H]1O` yielded an IC50 in the assay with Human betaherpesvirus 5 [1] of 0.5 µg/mL. Also, the “Ratio IC50” value in the assay on Human betaherpesvirus 5 [2] stood at 31.

In turn, `CC(C)(C)c1cc2c(OCCCn3cc(CN(O)C(=O)CCCCCn4cc(CO[C@H]5O[C@H](CO)[C@@H](O)[C@H](O)[C@@H]5O)nn4)nn3)c(c1)Cc1cc(C(C)(C)C)cc(c1OCCCn1cc(CN(O)C(=O)CCCCCn3cc(CO[C@H]4O[C@H](CO)[C@@H](O)[C@H](O)[C@@H]4O)nn3)nn1)Cc1cc(C(C)(C)C)cc(c1OCCCn1cc(CN(O)C(=O)CCCCCn3cc(CO[C@H]4O[C@H](CO)[C@@H](O)[C@H](O)[C@@H]4O)nn3)nn1)Cc1cc(C(C)(C)C)cc(c1OCCCn1cc(CN(O)C(=O)CCCCCn3cc(CO[C@H]4O[C@H](CO)[C@@H](O)[C@H](O)[C@@H]4O)nn3)nn1)C2` displayed a half-inhibitory concentration (IC50) in the assay on Human betaherpesvirus 5 [1] of 0.45 µg/mL. The “Ratio IC50” value with Human betaherpesvirus 5 [2] was 34.

With `COC(=O)CNC(=O)CN(Cc1cn(CCCOc2c3cc(C(C)(C)C)cc2Sc2cc(C(C)(C)C)cc(c2OCCCn2cc(CN(CC(=O)NCC(=O)OC)C(=O)CCCCCn4cc(CO[C@@H]5O[C@@H](C)[C@@H](O)[C@@H](O)[C@@H]5O)nn4)nn2)Sc2cc(C(C)(C)C)cc(c2OCCCn2cc(CN(CC(=O)NCC(=O)OC)C(=O)CCCCCn4cc(CO[C@@H]5O[C@@H](C)[C@@H](O)[C@@H](O)[C@@H]5O)nn4)nn2)Sc2cc(C(C)(C)C)cc(c2OCCCn2cc(CN(CC(=O)NCC(=O)OC)C(=O)CCCCCn4cc(CO[C@@H]5O[C@@H](C)[C@@H](O)[C@@H](O)[C@@H]5O)nn4)nn2)S3)nn1)C(=O)CCCCCn1cc(CO[C@@H]2O[C@@H](C)[C@@H](O)[C@@H](O)[C@@H]2O)nn1`, half-maximal inhibition in the assay on Human betaherpesvirus 5 [1] (IC50) was put at 3.15 µg/mL. For the same compound, the “Ratio IC50” value with Human betaherpesvirus 5 [2] was 4.91.

The compound `COC(=O)CNC(=O)CN(Cc1cn(CCCOc2c3cc(C(C)(C)C)cc2Cc2cc(C(C)(C)C)cc(c2OCCCn2cc(CN(CC(=O)NCC(=O)OC)C(=O)CCCCCn4cc(CO[C@@H]5O[C@@H](C)[C@@H](O)[C@@H](O)[C@@H]5O)nn4)nn2)Cc2cc(C(C)(C)C)cc(c2OCCCn2cc(CN(CC(=O)NCC(=O)OC)C(=O)CCCCCn4cc(CO[C@@H]5O[C@@H](C)[C@@H](O)[C@@H](O)[C@@H]5O)nn4)nn2)Cc2cc(C(C)(C)C)cc(c2OCCCn2cc(CN(CC(=O)NCC(=O)OC)C(=O)CCCCCn4cc(CO[C@@H]5O[C@@H](C)[C@@H](O)[C@@H](O)[C@@H]5O)nn4)nn2)C3)nn1)C(=O)CCCCCn1cc(CO[C@@H]2O[C@@H](C)[C@@H](O)[C@@H](O)[C@@H]2O)nn1` registered an IC50 in the assay with Human betaherpesvirus 5 [1] of 2.4 µg/mL. The “Ratio IC50” value with Human betaherpesvirus 5 [2] worked out at 6.45.

In the case of `OC[C@H]1O[C@@H](O[C@H]2[C@H](O)[C@@H](O)[C@H](O[C@H]3[C@H](O)[C@H](O)[C@H](O[C@@H]4[C@H](O)[C@H](O)[C@H](O)O[C@@H]4CO)O[C@@H]3CO)O[C@@H]2CO)[C@@H](O)[C@@H](O)[C@@H]1O`, the IC50 in the assay with Human betaherpesvirus 5 [1] was 15.5 nM.

For orientation: IC50 means the midpoint of a concentration-inhibition curve. Read a high IC50 as weaker potency.
